Several values for one entry are separate records, joined by “and”; a condition that tells them apart may be missing. Equal entries are not always repeated.
Legend:
[1] = test system: S. epidermidis ST20150446; assay: MIC by microdilution, S. epidermidis ST20150446; format: cell-based, Staphylococcus epidermidis; conditions: S. epidermidis ST20150446 (MecA positive, glycopeptide resistant), in duplicate
Summary of the method: (§1)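 Broth microdilution per CLSI (M07-A10) in Mueller-Hinton broth, run in duplicate; MIC recorded as minimal inhibitory concentration. Panel spans wild-type to multidrug-resistant strains, e.g. S. aureus ATCC700699 (MecA+, glycopeptide resistant), S. epidermidis ATCC35984 (MecA+), E. coli ATCC25922 (wild-type).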

S. epidermidis ATCC14990 = assay: MIC by microdilution, S. epidermidis ATCC14990; format: cell-based, Staphylococcus epidermidis; conditions: S. epidermidis ATCC14990 (MecA negative, wild-type), in duplicate
Summary of the method: (§2)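 Broth microdilution per CLSI document M07-A10, Mueller-Hinton medium, each MIC run in duplicate. Strains include E. coli ATCC25922 (wild-type), S. epidermidis ATCC35984 (MecA positive) and S. aureus ATCC700699 (MecA positive, glycopeptide resistant), within a mixed panel of susceptible and resistant Gram-positive/Gram-negative bacteria.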

[2] = test system: Clostridium difficile ATCC700057; assay: MIC by microdilution, Clostridium difficile; format: cell-based; conditions: strain ATCC70057 [sic] (Tables 1-2) / ATCC700057 (Tables 3-10), in duplicate
E. faecalis V583 = assay: MIC by microdilution, E. faecalis V583; format: cell-based, Enterococcus faecalis; conditions: E. faecalis V583 (VanB positive, glycopeptide resistant), in duplicate
Summary of the method: as §2

S. aureus ST20131365 = assay: MIC by microdilution, S. aureus ST20131365; format: cell-based, Staphylococcus aureus; conditions: S. aureus ST20131365 (MecA positive, glycopeptide resistant), in duplicate
Summary of the method: as §2

E. faecium AUS0004 = assay: MIC by microdilution, E. faecium AUS0004; format: cell-based, Enterococcus faecium; conditions: E. faecium AUS0004 (VanB positive, glycopeptide resistant), in duplicate
Summary of the method: as §1

S. epidermidis ATCC35984 = assay: MIC by microdilution, S. epidermidis ATCC35984; format: cell-based, Staphylococcus epidermidis; conditions: S. epidermidis ATCC35984 (MecA positive), in duplicate
Summary of the method: as §2

[3] = test system: S. epidermidis ST20140436; assay: MIC by microdilution, S. epidermidis ST20140436; format: cell-based, Staphylococcus epidermidis; conditions: S. epidermidis ST20140436 (MecA positive, glycopeptide resistant), in duplicate
Summary of the method: as §1

E. faecalis JH2-2 = assay: MIC by microdilution, E. faecalis JH2-2; format: cell-based, Enterococcus faecalis; set-up: unit not given here; conditions: E. faecalis JH2-2 (wild-type), in duplicate
Summary of the method: as §1

S. aureus ATCC29213 = assay: MIC by microdilution, S. aureus ATCC29213; format: cell-based, Staphylococcus aureus; conditions: S. aureus ATCC29213 (MecA negative, wild-type), Mueller-Hinton broth, in duplicate
Summary of the method: as §1

E. faecalis UCN41 = assay: MIC by microdilution, E. faecalis UCN41; format: cell-based, Enterococcus faecalis; set-up: unit not given here; conditions: E. faecalis UCN41 (VanA positive, glycopeptide resistant), in duplicate
Summary of the method: as §1

E. faecium ATCC19434T = assay: MIC by microdilution, E. faecium ATCC19434T; format: cell-based, Enterococcus faecium; set-up: unit not given here; conditions: E. faecium ATCC19434T (wild-type), in duplicate
Summary of the method: as §1

E. coli ATCC25922 = assay: MIC by microdilution, E. coli ATCC25922; format: cell-based, Escherichia coli; conditions: E. coli ATCC25922 (wild-type), in duplicate
Summary of the method: as §2

S. aureus ATCC700699 = assay: MIC by microdilution, S. aureus ATCC700699; format: cell-based, Staphylococcus aureus; set-up: unit not given here; conditions: S. aureus ATCC700699 (MecA positive, glycopeptide resistant), in duplicate
Summary of the method: as §2

S. aureus ATCC25923 = assay: MIC by microdilution, S. aureus ATCC25923; format: cell-based, Staphylococcus aureus; conditions: S. aureus ATCC25923 (MecA negative, wild-type), Mueller-Hinton broth, in duplicate
Summary of the method: as §1

E. faecium BM4147 = assay: MIC by microdilution, E. faecium BM4147; format: cell-based, Enterococcus faecium; set-up: unit not given here; conditions: E. faecium BM4147 (VanA positive, glycopeptide resistant), in duplicate
Summary of the method: as §1

[4] = test system: panel of Gram-positive and Gram-negative strains; assay: Antibacterial profile on the selected panel of strains; format: cell-based; conditions: summary of Tables 1-12
Summary of the method: as §2

Structure (SMILES) | Minimal Inhibitory Concentration (MIC) [1] | Minimal Inhibitory Concentration (MIC) (S. epidermidis ATCC14990) | Minimal Inhibitory Concentration (MIC) [2] | Minimal Inhibitory Concentration (MIC) (E. faecalis V583) | Minimal Inhibitory Concentration (MIC) (S. aureus ST20131365) | Minimal Inhibitory Concentration (MIC) (E. faecium AUS0004) | Minimal Inhibitory Concentration (MIC) (S. epidermidis ATCC35984) | Minimal Inhibitory Concentration (MIC) [3] | Minimal Inhibitory Concentration (MIC) (E. faecalis JH2-2) | Minimal Inhibitory Concentration (MIC) (S. aureus ATCC29213) | Minimal Inhibitory Concentration (MIC) (E. faecalis UCN41) | Minimal Inhibitory Concentration (MIC) (E. faecium ATCC19434T) | Minimal Inhibitory Concentration (MIC) (E. coli ATCC25922) | Minimal Inhibitory Concentration (MIC) (S. aureus ATCC700699) | Minimal Inhibitory Concentration (MIC) (S. aureus ATCC25923) | Minimal Inhibitory Concentration (MIC) (E. faecium BM4147) | antimicrobial / antibacterial activity (in words) [4]
CC[P+](CC)(CC)[Au-][c]1nn[nH]c1COC(=O)NC(C(=O)NC)c1ccccc1 (stereo not drawn) [TMB8] | 0.125 | ≤0.06 | ≤0.06-0.125 | 2 | 0.25 and 0.5 | 2 | ≤0.06 | 0.125 | 1 | 0.25 | 1 and 2 | 1 and 2 | >8 | 0.25 and 0.5 | 0.25 | 2 | have antimicrobial activity
CC1(C)S[C@@H]2[C@H](NC(=O)[C@H](NC(=O)CCc3cn(Cc4ccccc4)nn3)c3ccccc3)C(=O)N2[C@H]1C(=O)O [TMB9] | 8/>8 | 1 | 2-4 | 4 | >8 | >8 | >8 | 8 | 2 | 1 | 8 | 8 | >8 | >8 | 1 | >8 | do not show an antibacterial activity
CC[P+](CC)(CC)[Au-][c]1nn[nH]c1-c1cccc(C(=O)O)c1 [TMB13] | ≤0.06 | ≤0.06 | ≤0.06 | 1 and 2 | 0.25 | 1 and 2 | ≤0.06 | ≤0.06 | 1 and 2 | 0.125 and 0.25 | 1 and 2 | 0.5 | >8 | 0.25 | 0.125 | 2 | have antimicrobial activity
